According to US20030134342A1, “Binding-specific peptides, binding-specific carrier molecules, and uses thereof” (priority 2001, published 2003):
Where no end group is shown, it is not given here.

Columns and labels:
AML bone marrow cells = test: Methylcellulose culture of AML bone marrow cells with peptides: proliferation (colonies) and differentiation (morphology); format: cell-based, human; conditions: for Activation of Proliferation GM-CSF / Cell Differentiation GM-CSF: with GM-CSF; for Activation of Proliferation (Patient No.) +GM-CSE: peptide with GM-CSF; for induction of differentiation of the patient cells (FIG. 8): AML bone marrow cells, 14 days methylcellulose; for Activation of Differentiation: patient numbers
Experimental: The effect of various peptides were analyzed for their biological activity on cells from a patient with acute myelogenous leukemia. The AML cells were cultured into a semi-solid medium of methylcellulose in order to determine the cloning efficiency and the differentiation of the cells. The various peptides were introduced into the semi-solid cell culture at a concentration of 10^−4 M (0.1 mM) peptide. After 14 days continuous incubation of the cell cultures, the morphology of the cells were analyzed. The data are shown in FIG. 7 for the cultures and show the percentage of immature cells in the culture (solid black), the percentage of small myeloblasts (solid white), the percentage of young cells (dark gray), and the relative percentage of monocytes to […] (light gray). The data regarding the biological response of AML bone marrow cells in the presence of the various peptides is shown in the table below.

AML cells = test: ELISA binding of phage displaying peptides to fixed cells: AML cells; design: species or system human; conditions: in words
Experimental: (§1) Preliminary experiments were performed to identify specific peptides by using cells from patients diagnosed with CLL, CML, and AML. The screening was performed by incubating the cells with the phage-peptides from the library. This incubation allows interaction between the peptide and the cell. The binding step was followed by several washes to eliminate free phage. Phage bound on the cell surface was eluted.
(§2) After the last round of binding with one cell type, the eluted phage was plated on an agar plate with the appropriate selection antibiotics. Each individual colony, corresponding to one individual peptide sequence, was amplified in a 96-well plate. After purification, these peptides were tested for their ability to bind to the cells in a microtiter plate by ELISA.
(§3) Each peptide was dispensed in a 96-well plate, containing cells previously fixed. Each colony was tested in a triplicate assay with the appropriate controls. After incubation of cells with an individual clone, the wells were washed to eliminate free phage. The bound phages were detected by using a monoclonal anti-M13 antibody/horseradish peroxidase (HRP) conjugate. After addition of the HRP substrate, the intensity of the coloration was measured by spectrophotometry. The light absorbance values (optical density values, O.D. values) are proportional to the number of phage bound to the cells.
(§4) The binding to various cell types were examined to evaluate the cellular specificity of the phage clones. For example, the clones from phage eluted from CLL patient cells were assayed for their ability to bind cells from an AML patient. Cells from normal donors (non-leukemic) were also evaluated to ascertain leukemia cell specificity.
(§5) Peripheral blood and bone marrow samples were collected from patients after informed consent. The samples were collected in tubes containing sodium citrate. Mononuclear cells were isolated by Ficoll-Hypaque density gradient separation and collection of the cells at a density of 1.077 g/mL.
(§6) The wells of a 96-well plate were pre-treated with 100 μL of poly-L-lysine (0.01 mg/mL in phosphate-buffered saline, 120 mM NaCl, 2.7 mM KCl, 10 mM phosphate buffer, “PBS”) for 2-16 hours at room temperature. After draining the poly-L-lysine from the wells, the excess poly-L-lysine was removed from the wells by flicking. The cells were washed with PBS, then suspended in PBS and diluted to a final concentration of […]. The cell suspension (200 μL; 250,000 cells) were added to each well needed for the assay.
(§7) The plates were centrifuged at 500 g for about 5 minutes in a microplate carrying centrifuge when available. The cells were fixed to the wells through the addition of glutaraldehyde (100 μL of 0.5%) and incubating at room temperature for about an hour. The glutaraldehyde was removed and the cell-coated wells washed once with PBS. Alternatively, the cells were permitted to settle to the well bottoms for about 4 hours at 37° C., and the glutaraldehyde fixative was added after removing the PBS.
(§8) A glycine solution (200 μl of 0.1 M glycine in PBS) containing bovine serum albumin (BSA; 1%) was added to the wells and permitted to incubate for 30 minutes to block excess glutaraldehyde. The glycine was removed, and the cell-coated wells washed once with PBS. A sodium pyrophosphate solution (200 μL of 0.3 mg/mL NaPPi) was added to the wells and incubated for an hour at room temperature to neutralize lysine charges. The pyrophosphate solution was removed and the wells washed once with PBS. Multiwell microtiter plates with cell-coated wells were stored at 4° C. with fresh PBS solution in the coated wells.
(§9) The cells to be studied for binding were suspended in PBS and adsorbed onto to a poly-L-lysine pretreated 96-well plate and kept at 4° C. The PBS was removed from the wells and an H2O2 solution in PBS (6% H2O2 in 200 μL/well) was added. […]

[1] = tested on: human bone marrow AML cells; test: Effect of phage-peptides on differentiation, cell number and viability of freshly obtained AML patient bone marrow cells cultured seven days; format: cell-based; conditions: for Number of Cells / Percent Differentiation / Viability: phage-peptides; for Percent differentiated in Specimen 2 / Percent differentiated in Specimen 1: peptides in bacteriophage, AML cells cultured seven days in vitro
From the text: The effect of various phage-peptides were studied on the differentiation of cells from two AML patients.

CML cells = test: ELISA binding of phage displaying peptides to fixed cells: CML cells; design: species or system human; conditions: in words
Experimental: as §1, §2, §3, §4, §5, §6, §7, §8, §9

CLL cells = test: ELISA binding of phage displaying peptides to fixed cells: CLL cells; design: species or system human; conditions: in words
Experimental: as §1, §2, §3, §4, §5, §6, §7, §8, §9

[2] = tested on: human myeloid leukemia cell line HL60; test: Viability of HL60 cells, trypan blue; format: cell-based
Experimental: Studies were conducted of the effects of the free G5 12-8B (artificially synthesized), phage displaying G5 12-8B, the free A2 11-24 peptide, phage displaying the A2 11-24 peptide, a combination of the free G5 and A2 peptides, a combination of pure peptides plus phage displaying the peptides, and several concentrations of peptide.

[3] = tested on: all myeloid cells, both malignant and nonmalignant; test: ELISA binding of phage displaying peptides to fixed cells: all myeloid cells; design: species or system human; conditions: in words
Experimental: as §1, §2, §3, §4, §5, §6, §7, §8, §9

[4] = tested on: normal peripheral blood cells (lymphocytes and granulocytes); test: ELISA binding of phage displaying peptides to fixed cells: normal peripheral blood cells; design: species or system human; conditions: in words
Experimental: as §1, §2, §3, §4, §5, §6, §7, §8, §9

[5] = fraction, not explained, peptide alone
[6] = numbers of the AML patients whose cells responded

CDEKRGPNEC [B4 C10]
Activation of Proliferation (AML bone marrow cells; [5]): 1/6
Cell Differentiation (AML bone marrow cells; [5]): 2/4
Activation of Proliferation GM-CSF (AML bone marrow cells; fraction, not explained): 1/2
Cell Differentiation GM-CSF (AML bone marrow cells; fraction, not explained): 0/2
Activation of Proliferation (Patient No.) (AML bone marrow cells; numbers of the AML patients whose cells responded, peptide alone, 10^−4 M, 14 days): 9
Activation of Proliferation (Patient No.) +GM-CSE (AML bone marrow cells; [6]): 11

CIEETAAKGC [Peptide A2A, A2 with R replaced by A]
Activation of Proliferation (AML bone marrow cells; [5]): 4/11
Cell Differentiation (AML bone marrow cells; [5]): 3/8
Inhibition of Proliferation (AML bone marrow cells; [5]): 1/11
Activation of Proliferation GM-CSF (AML bone marrow cells; fraction, not explained): 2/4
Cell Differentiation GM-CSF (AML bone marrow cells; fraction, not explained): 1/4
activity on cell differentiation (FIG. 9, another example) (AML bone marrow cells; in words): have a biological activity
activity on cell differentiation compared with the peptide with cysteine residues (FIG. 8) (AML bone marrow cells; in words): higher activity
induction of differentiation of the patient cells (FIG. 8) (AML bone marrow cells; in words): able to induce the differentiation
Inhibition of Proliferation (AML bone marrow cells; numbers of the AML patients whose cells responded, peptide alone): 10
Activation of Differentiation (AML bone marrow cells): 3

CNELHMKQHC [G7 12-8B]
Activation of Proliferation (AML bone marrow cells; [5]): 2/6
Cell Differentiation (AML bone marrow cells; [5]): 4/5
Activation of Proliferation GM-CSF (AML bone marrow cells; fraction, not explained): 0/2
Cell Differentiation GM-CSF (AML bone marrow cells; fraction, not explained): 0/2

CNHVCSRLGC [B6 12-8B]
Activation of Proliferation (AML bone marrow cells; [5]): 5/14
Cell Differentiation (AML bone marrow cells; [5]): 3/13
Inhibition of Proliferation (AML bone marrow cells; [5]): 3/14
Activation of Proliferation GM-CSF (AML bone marrow cells; fraction, not explained): 3/5
Cell Differentiation GM-CSF (AML bone marrow cells; fraction, not explained): 2/5

CNNATFEDGC [G2 12-8A]
Activation of Proliferation (AML bone marrow cells; [5]): 6/14
Cell Differentiation (AML bone marrow cells; [5]): 2/12
Inhibition of Proliferation (AML bone marrow cells; [5]): 1/14
Activation of Proliferation GM-CSF (AML bone marrow cells; fraction, not explained): 2/5
Cell Differentiation GM-CSF (AML bone marrow cells; fraction, not explained): 2/5

CNNATVEDEC [C8 12-8B]
Activation of Proliferation (AML bone marrow cells; [5]): 2/8
Cell Differentiation (AML bone marrow cells; [5]): 1/8
Activation of Proliferation GM-CSF (AML bone marrow cells; fraction, not explained): 1/2
Cell Differentiation GM-CSF (AML bone marrow cells; fraction, not explained): 1/2

DEKRGPNE [B4(1)]
binding of phage displaying the peptide to AML cells (AML cells): bind
Number of Cells ([1]; Patient 1): 1.3 106
Number of Cells ([1]; Patient 2): 0.25 106
Percent Differentiation ([1]; Patient 2): 53%
Percent differentiated in Specimen 2 [1]: 53%
binding of phage displaying the peptide to CML cells (CML cells): bind

EFQQWSGK [B7(1)]
binding of phage displaying the peptide to CLL cells (CLL cells): not
binding of phage displaying the peptide to AML cells (AML cells): bind
binding of phage displaying the peptide to CML cells (CML cells): bind

EFQQWSGK [G2 11-24]
binding of phage displaying the peptide to AML cells (AML cells): bind and binds
Number of Cells ([1]; Patient 1): 1.11 106
Percent Differentiation ([1]; Patient 1): 16.2%
Number of Cells ([1]; Patient 2): 0.25 106
Percent Differentiation ([1]; Patient 2): 39%
Percent differentiated in Specimen 1 [1]: 16%
Percent differentiated in Specimen 2 [1]: 39%
binding of phage displaying the peptide to CML cells (CML cells): bind and binds

EFQQWSGK [G5 12-8B no Cys]
Activation of Differentiation (AML bone marrow cells): 3

EFQQWSGK [H3 11-24]
binding of phage displaying the peptide to CLL cells (CLL cells): bind

IEETARKG [A2 11-24 no Cys]
Activation of Proliferation (AML bone marrow cells; [5]): 4/14
Cell Differentiation (AML bone marrow cells; [5]): 4/13
Activation of Proliferation GM-CSF (AML bone marrow cells; fraction, not explained): 1/2
Cell Differentiation GM-CSF (AML bone marrow cells; fraction, not explained): 2/2
activity on cell differentiation compared with the peptide with cysteine residues (FIG. 8) (AML bone marrow cells; in words): higher activity
induction of differentiation of the patient cells (FIG. 8) (AML bone marrow cells; in words): able to induce the differentiation
Activation of Proliferation (Patient No.) +GM-CSE (AML bone marrow cells; [6]): 11

IEETARKG [peptide A2]
Day 5 Viability ([2]; 5 day): 97%
Day 7 Viability ([2]; 7 day): 95%
Day 9 Viability ([2]; 9 day): 74%

NELHMKQH [G6 12-8B]
binding of phage displaying the peptide to all myeloid cells, both malignant and nonmalignant [3]: bind

NETTVREY [A7 11-24]
binding of phage displaying the peptide to CLL cells (CLL cells): bind
binding of phage displaying the peptide to blood cells (lymphocytes or granulocytes) [4]: bind

NETTVREY [F10 11-24]
binding of phage displaying the peptide to CLL cells (CLL cells): not
binding of phage displaying the peptide to all myeloid cells, both malignant and nonmalignant [3]: bind
binding of phage displaying the peptide to AML cells (AML cells): bind
binding of phage displaying the peptide to CML cells (CML cells): bind

NHVCSRLG [B6 11-24]
binding of phage displaying the peptide to all myeloid cells, both malignant and nonmalignant [3]: bind

NNATFEDG [G2 12-8A]
Number of Cells ([1]; Patient 1): 0.93 106
Percent Differentiation ([1]; Patient 1): 27.5%
Number of Cells ([1]; Patient 2): 0.31 106
Percent Differentiation ([1]; Patient 2): 52%
Percent differentiated in Specimen 1 [1]: 28%
Percent differentiated in Specimen 2 [1]: 51%

NNATVEDE [F9 11-24]
binding of phage displaying the peptide to all myeloid cells, both malignant and nonmalignant [3]: bind

VSEDIYDA [C10 12-8B]
binding of phage displaying the peptide to CLL cells (CLL cells): bind
binding of phage displaying the peptide to all myeloid cells, both malignant and nonmalignant [3]: bind
binding of phage displaying the peptide to AML cells (AML cells): bind
binding of phage displaying the peptide to CML cells (CML cells): bind

VSEDIYDA [F1 12-8B]
binding of phage displaying the peptide to CLL cells (CLL cells): not
binding of phage displaying the peptide to all myeloid cells, both malignant and nonmalignant [3]: bind
binding of phage displaying the peptide to AML cells (AML cells): binds and bind
Number of Cells ([1]; Patient 1): 0.82 106
Percent Differentiation ([1]; Patient 1): 34%
Number of Cells ([1]; Patient 2): 0.22 106
Percent Differentiation ([1]; Patient 2): 52%
Percent differentiated in Specimen 1 [1]: 34%
Percent differentiated in Specimen 2 [1]: 52%
binding of phage displaying the peptide to CML cells (CML cells): binds and bind

granulocyte-macrophage colony-stimulating factor [GM-CSF]
Number of Cells ([1]; Patient 1): 1.57 106
Percent Differentiation ([1]; Patient 1): 21%
Viability ([1]; Patient 1): 80%
Number of Cells ([1]; Patient 2): 0.87 106
Percent Differentiation ([1]; Patient 2): 16.5%
Viability ([1]; Patient 2): 89%
Percent differentiated in Specimen 1 [1]: 21%
Percent differentiated in Specimen 2 [1]: 17%
